Measurements from patent publication US20120040951A1, “HETEROARYL COMPOUNDS USEFUL AS RAF KINASE INHIBITORS” (priority 2008, published 2012).

Experiments:
[1] = biological target: V599E Raf (Homo sapiens, UniProt P15056, V600E); assay: Biochemical FRET assay, mutant Raf (phosphorylation of MEK); settings: 0.125 nM V599E Raf, 100 nM biotin-MEK, 25 μM ATP, read-out: Raf (mut) inhibition
Description: (1) Biochemical FRET Assay […]
Inhibitors were diluted 4-fold in 100% DMSO and added to a final concentration of 10 μM to 40 μM to a solution containing 100 nM biotin-MEK, 0.125 nM V599E Raf in 50 mM HEPES, pH 7.4, 60 mM NaCl, 3 mM MgCl2, 2 mM DTT, 0.25 mM MnCl2, 0.01% BSA, and 0.01% Tween-20 and incubated for 20 minutes at room temperature. The kinase reaction was started by the addition of 25 μM ATP to a final volume of 45 μl and allowed to progress for 60 minutes. The reaction was stopped with 15 mM EDTA and 20 nM Streptavidin-APC, 2.5 nM Polyclonal anti p-MEK1/2 (Ser217/221), 2.5 nM Eu-labeled anti-rabbit IgG were added in Lance detection buffer and 5% Superblock in PBS for a final volume of 100 μl. The detection reaction was incubated for 90 minutes at room temperature and then read on an Analyst plate reader using standard TR-FRET (time resolved fluorescence resonance energy transfer) settings for Eu and APC.
Compounds having an activity designated as “A” provided an IC50≦100 nM; compounds having an activity designated as “B” provided an IC50 of 100-1000 nM; and compounds having an activity designated as “C” provided an IC50 of 1000-10,000 nM.

[2] = tested on: phospho-ERK in melanoma derived WM-266-4 cells; assay: Mechanistic cellular assay for Raf kinase activity (phospho-ERK, Bio-Plex); format: cell-based; settings: Homo sapiens, treated 1-2 hr at 37° C., serum free medium, read-out: pERK EC50
Method in brief: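 WM-266-4 melanoma cells (wild-type/V600D BRaf) grown overnight in 10% FBS RPMI, then treated 1–2 h at 37 °C in serum-free RPMI with eight 3-fold dilutions of compound (from 5 mM DMSO stock, 1000× dilution). Lysate phospho-ERK1,2 quantified by Bio-Plex bead immunoassay.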

Chain of V599E Raf (P15056 whole entry V600E): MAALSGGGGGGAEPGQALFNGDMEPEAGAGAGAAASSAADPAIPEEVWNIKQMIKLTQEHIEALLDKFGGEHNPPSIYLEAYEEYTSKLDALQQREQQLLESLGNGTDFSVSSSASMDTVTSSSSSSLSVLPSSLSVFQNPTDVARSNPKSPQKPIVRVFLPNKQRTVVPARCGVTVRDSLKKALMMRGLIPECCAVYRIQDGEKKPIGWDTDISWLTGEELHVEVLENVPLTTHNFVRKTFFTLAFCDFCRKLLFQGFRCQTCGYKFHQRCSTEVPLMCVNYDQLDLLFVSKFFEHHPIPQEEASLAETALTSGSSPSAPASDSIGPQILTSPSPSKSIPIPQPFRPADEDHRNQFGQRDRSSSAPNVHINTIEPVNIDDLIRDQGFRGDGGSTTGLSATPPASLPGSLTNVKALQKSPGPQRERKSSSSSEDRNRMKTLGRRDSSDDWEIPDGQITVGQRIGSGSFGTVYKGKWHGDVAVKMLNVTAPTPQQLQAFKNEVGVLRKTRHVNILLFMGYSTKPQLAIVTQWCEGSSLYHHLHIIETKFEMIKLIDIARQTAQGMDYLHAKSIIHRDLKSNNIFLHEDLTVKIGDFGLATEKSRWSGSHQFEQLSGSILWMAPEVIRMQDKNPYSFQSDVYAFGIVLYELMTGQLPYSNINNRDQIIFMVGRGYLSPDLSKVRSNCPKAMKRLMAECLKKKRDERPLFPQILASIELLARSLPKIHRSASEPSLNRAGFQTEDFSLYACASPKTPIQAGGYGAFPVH

Structure (SMILES) | IC50 [1] [nM] | EC50 [2] [nM]
Cc1n[nH]c(C)c1C(=O)N[C@H](C)c1ncc(C(=O)Nc2cc(C(F)(F)F)c(Cl)cn2)s1 [Example 111] | ≤ 100 | 1000 to 10000
C[C@@H](NC(=O)c1cnn(Cc2ccccc2)c1)c1ncc(C(=O)Nc2cc(C(F)(F)F)c(Cl)cn2)s1 [Example 118] | ≤ 100 | 1000 to 10000
C[C@@H](NC(=O)c1cnn(-c2ccccn2)c1)c1ncc(C(=O)Nc2cc(C(F)(F)F)c(Cl)cn2)s1 [Example 119] | ≤ 100 | 1000 to 10000
C[C@@H](NC(=O)c1cnn(-c2ccccc2)c1N)c1ncc(C(=O)Nc2cc(C(F)(F)F)c(Cl)cn2)s1 [Example 121] | 100 to 1000 | 100 to 1000
Cc1nn(C)cc1C(=O)N[C@H](C)c1ncc(C(=O)Nc2cc(C(F)(F)F)c(Cl)cn2)s1 [Example 123] | 100 to 1000 | 1000 to 10000
CCc1[nH]ncc1C(=O)N[C@H](C)c1ncc(C(=O)Nc2cc(C(F)(F)F)c(Cl)cn2)s1 [Example 125] | 100 to 1000 | 100 to 1000
CCn1ncc(C(=O)N[C@H](C)c2ncc(C(=O)Nc3cc(C(F)(F)F)c(Cl)cn3)s2)c1C [Example 126] | ≤ 100 | ≤ 100
C[C@@H](NC(=O)c1cnn(C)c1N)c1ncc(C(=O)Nc2cc(C(F)(F)F)c(Cl)cn2)s1 [Example 127] | ≤ 100 | ≤ 100
C[C@@H](NC(=O)c1cnn(C)c1CN1CCCCC1)c1ncc(C(=O)Nc2cc(C(F)(F)F)c(Cl)cn2)s1 [Example 128] | 100 to 1000 | 100 to 1000
CNCc1c(C(=O)N[C@H](C)c2ncc(C(=O)Nc3cc(C(F)(F)F)c(Cl)cn3)s2)cnn1C [Example 129] | 1000 to 10000 | 1000 to 10000
C[C@@H](NC(=O)c1cnn(C)c1CN1CCC(F)(F)C1)c1ncc(C(=O)Nc2cc(C(F)(F)F)c(Cl)cn2)s1 [Example 130] | 100 to 1000 | 100 to 1000
C[C@@H](NC(=O)c1cnn(C)c1CNCCF)c1ncc(C(=O)Nc2cc(C(F)(F)F)c(Cl)cn2)s1 [Example 131] | 100 to 1000 | 100 to 1000
C[C@@H](NC(=O)c1cnn(C)c1CN1CCCC1)c1ncc(C(=O)Nc2cc(C(F)(F)F)c(Cl)cn2)s1 [Example 132] | 100 to 1000 | 100 to 1000
C[C@@H](NC(=O)c1cnn(C)c1CNC1CC1)c1ncc(C(=O)Nc2cc(C(F)(F)F)c(Cl)cn2)s1 [Example 133] | 100 to 1000 | 100 to 1000
CC(C)n1cc(C(=O)N[C@H](C)c2ncc(C(=O)Nc3cc(C(F)(F)F)c(Cl)cn3)s2)cn1 [Example 134] | 100 to 1000 | 100 to 1000
C[C@@H](NC(=O)c1nc(NC(=O)OC(C)(C)C)cn1C)c1ncc(C(=O)Nc2cc(C(F)(F)F)c(Cl)cn2)s1 [Example 138] | 100 to 1000 | 1000 to 10000
COCCn1c(C(=O)NC(C)c2cnc(Nc3ccc(C(F)(F)F)cc3)s2)cnc1C (stereo not shown) [Example 140] | ≤ 100 | 1000 to 10000
C[C@@H](NC(=O)c1cn(-c2ccncc2)cn1)c1ncc(C(=O)Nc2cc(C(F)(F)F)c(Cl)cn2)s1 [Example 148] | ≤ 100 | 1000 to 10000
C[C@@H](NC(=O)c1cnc(C#N)n1C)c1ncc(C(=O)Nc2cc(C(F)(F)F)c(Cl)cn2)s1 [Example 150] | ≤ 100 | 1000 to 10000
CCCNc1ncc(C(=O)N[C@H](C)c2ncc(C(=O)Nc3cc(C(F)(F)F)c(Cl)cn3)s2)n1C [Example 153] | 100 to 1000 | 1000 to 10000
C[C@@H](NC(=O)c1cnc(CN2CCCC2)n1C)c1ncc(C(=O)Nc2cc(C(F)(F)F)c(Cl)cn2)s1 [Example 155] | ≤ 100 | 1000 to 10000
C[C@@H](NC(=O)c1cnc(CN2CCOCC2)n1C)c1ncc(C(=O)Nc2cc(C(F)(F)F)c(Cl)cn2)s1 [Example 156] | ≤ 100 | 1000 to 10000

Structure (SMILES) | IC50 [1] [nM] | EC50 [2] [nM]
C[C@@H](NC(=O)c1cnc2n1CCCN2C)c1ncc(C(=O)Nc2cc(C(F)(F)F)c(Cl)cn2)s1 [Example 167] | ≤ 100 | 100 to 1000
CCn1cnc2cnc(C(=O)N[C@H](C)c3cnc(Nc4ccc(C(F)(F)F)cc4)cn3)cc21 [Example 174] | ≤ 100 | ≤ 100
CC(NC(=O)c1cc2c(cn1)ncn2C1CCC1)c1cnc(Nc2ccc(C(F)(F)F)cc2)cn1 (stereo not shown) [Example 175] | ≤ 100 | ≤ 100
C[C@@H](NC(=O)c1cc2c(cn1)ncn2C1CCC1)c1cnc(Nc2ccc(C(F)(F)F)cc2)s1 [Example 176] | ≤ 100 | ≤ 100
CC(NC(=O)c1cnc2n1CCCN2)c1cnc(Nc2ccc(C(F)(F)F)cc2)s1 (stereo not shown) [Example 177] | ≤ 100 | 100 to 1000
CC(NC(=O)c1cc2c(cn1)ncn2C1CNC1)c1cnc(Nc2ccc(C(F)(F)F)cc2)cn1 (stereo not shown) [Example 179] | ≤ 100 | 100 to 1000
CC(NC(=O)c1cc2c(cn1)ncn2C1CN(C(C)C)C1)c1cnc(Nc2ccc(C(F)(F)F)cc2)cn1 (stereo not shown) [Example 181] | ≤ 100 | 100 to 1000
C[C@@H](NC(=O)c1cc2c(cn1)ncn2C1CN(C)C1)c1cnc(Nc2ccc(C(F)(F)F)cc2)s1 [Example 182] | ≤ 100 | 100 to 1000
CC(C)N1CC(n2cnc3cnc(C(=O)N[C@H](C)c4cnc(Nc5ccc(C(F)(F)F)cc5)s4)cc32)C1 [Example 183] | ≤ 100 | ≤ 100
C[C@@H](NC(=O)c1cc2c(cn1)ncn2CCS(C)(=O)=O)c1cnc(Nc2ccc(C(F)(F)F)cc2)s1 [Example 185] | ≤ 100 | 100 to 1000
C[C@H](NC(=O)c1cc2c(cn1)ncn2C1CCC1)c1cnc(Nc2ccc(C(F)(F)F)cc2)cn1 [Example 187] | 100 to 1000 | 1000 to 10000
O=C(NCc1cnc(Nc2ccc(C(F)(F)F)cc2)s1)c1ccc2ncccc2c1 [Example 189] | ≤ 100 | 1000 to 10000
CC(NC(=O)c1ncc2ncn(C)c2n1)c1cnc(Nc2ccc(C(F)(F)F)cc2)s1 (stereo not shown) [Example 190] | ≤ 100 | 100 to 1000
CCn1cnc2cnc(C(=O)NC(C)c3cnc(Nc4ccc(C(F)(F)F)cc4)s3)nc21 (stereo not shown) [Example 198] | ≤ 100 | 100 to 1000
CC(NC(=O)c1cc2c(cn1)nc(N)n2C)c1cnc(Nc2ccc(C(F)(F)F)cc2)s1 (stereo not shown) [Example 199] | ≤ 100 | ≤ 100
CC(NC(=O)c1cc2c(cn1)nc(N)n2C)c1cnc(Nc2ccc(C(F)(F)F)cc2)cn1 (stereo not shown) [Example 201] | ≤ 100 | ≤ 100
CC(NC(=O)c1cc2cn(C)nc2cn1)c1cnc(Nc2ccc(C(F)(F)F)cc2)s1 (stereo not shown) [Example 203] | ≤ 100 | ≤ 100
CCn1cc2cc(C(=O)NC(C)c3cnc(Nc4ccc(C(F)(F)F)cc4)s3)ncc2n1 (stereo not shown) [Example 207] | ≤ 100 | 100 to 1000
C[C@@H](NC(=O)c1cnn2ccccc12)c1cc(C(=O)Nc2ccc(Br)c(C(F)(F)F)c2)on1 [Example 209] | 100 to 1000 | ≤ 100
C[C@@H](NC(=O)c1cnn2ccccc12)c1cc(C(=O)Nc2nc3ccccc3[nH]2)on1 [Example 211] | ≤ 100 | 1000 to 10000
C[C@@H](NC(=O)c1cnn2ccccc12)c1cc(C(=O)Nc2nc3cc(Cl)ccc3o2)on1 [Example 212] | ≤ 100 | 1000 to 10000
COc1ccc(C(F)(F)F)cc1NC(=O)c1cc([C@@H](C)NC(=O)c2cnn3ccccc23)no1 [Example 214] | 100 to 1000 | 100 to 1000
